Tests used:
SU-DHL-4 = test: Cell inhibition assay (PrestoBlue, 48 h); format: cell-based; conditions: Homo sapiens, SU-DHL-4, 48 h, SU-DHL-4 diffuse large B-cell lymphoma cells, read-out: IC50, inhibition of growth
Mino = test: Cell inhibition assay (PrestoBlue, 48 h); format: cell-based; conditions: Homo sapiens, Mino cells, read-out: IC50, inhibition of growth
[1] = Pharmacokinetics in Sprague-Dawley rats, 2-in-1 dosing; format: in vivo; conditions: rat; for V: intravenous 1 mg/kg
Protocol: Sprague-Dawley rats (approximate weight 275-300 g, N=3) were dosed intravenously at 5 mL/kg and orally at 10 mL/kg with the above dosing solutions. Blood samples were collected into tubes containing EDTA as the anticoagulant at 0, 0.25 (intravenous only), 0.5, 1, 2, 4, 8, 10, and 24 h post-dosing, and plasma samples were prepared by centrifugation. The plasma samples were mixed with 3× volumes of acetonitrile containing 100 nM reserpine as the internal standard, and centrifuged at 4000 RPM for 15 min. The supernatants were injected for LC/MS analysis which were carried out on a AB Sciex 4000 Q Trap LC/MS/MS system coupled with Shimadzu Prominence UFLCXR 20 series (including a CBM-20A controller, two LC-20ADXR solvent delivery units, SIL-20AC HT autosampler, CTO-20A column oven, and a SPD-20A UV detector). The samples were separated on a Phenomenex Columbus column (C18, 4 μm, 50×2 mm) eluted with two solvent systems: 2 mM ammonium acetate in water containing 0.1% formic acid (A) and methanol (B) at a linear gradient starting with 25% B. Electrospray ionization in positive mode was used to acquire LC/MS/MS data.

[2] = tested on: battery of selected protein kinases; test: In vitro screen of a battery of selected protein kinases (summary statement); format: biochemical; conditions: BTK, BMX, ABL, ABL(E255K), SRC, ACK, ARG, BLK, DDR2, EPHA, FGR, FMS, FRK, FYN, HCK, LCK, LYN, PDGFRα, PDGFRβ, YES, PIK3CA/PIK3R1, among others
PDGFRβ = biological target: T1, PDGFRβ (Homo sapiens, UniProt P09619); test: Off-chip Mobility Shift Assay, kinase inhibition; format: biochemical
T1 construct: purchased Carna Biosciences, Inc
T1 sequence (P09619 33-1106): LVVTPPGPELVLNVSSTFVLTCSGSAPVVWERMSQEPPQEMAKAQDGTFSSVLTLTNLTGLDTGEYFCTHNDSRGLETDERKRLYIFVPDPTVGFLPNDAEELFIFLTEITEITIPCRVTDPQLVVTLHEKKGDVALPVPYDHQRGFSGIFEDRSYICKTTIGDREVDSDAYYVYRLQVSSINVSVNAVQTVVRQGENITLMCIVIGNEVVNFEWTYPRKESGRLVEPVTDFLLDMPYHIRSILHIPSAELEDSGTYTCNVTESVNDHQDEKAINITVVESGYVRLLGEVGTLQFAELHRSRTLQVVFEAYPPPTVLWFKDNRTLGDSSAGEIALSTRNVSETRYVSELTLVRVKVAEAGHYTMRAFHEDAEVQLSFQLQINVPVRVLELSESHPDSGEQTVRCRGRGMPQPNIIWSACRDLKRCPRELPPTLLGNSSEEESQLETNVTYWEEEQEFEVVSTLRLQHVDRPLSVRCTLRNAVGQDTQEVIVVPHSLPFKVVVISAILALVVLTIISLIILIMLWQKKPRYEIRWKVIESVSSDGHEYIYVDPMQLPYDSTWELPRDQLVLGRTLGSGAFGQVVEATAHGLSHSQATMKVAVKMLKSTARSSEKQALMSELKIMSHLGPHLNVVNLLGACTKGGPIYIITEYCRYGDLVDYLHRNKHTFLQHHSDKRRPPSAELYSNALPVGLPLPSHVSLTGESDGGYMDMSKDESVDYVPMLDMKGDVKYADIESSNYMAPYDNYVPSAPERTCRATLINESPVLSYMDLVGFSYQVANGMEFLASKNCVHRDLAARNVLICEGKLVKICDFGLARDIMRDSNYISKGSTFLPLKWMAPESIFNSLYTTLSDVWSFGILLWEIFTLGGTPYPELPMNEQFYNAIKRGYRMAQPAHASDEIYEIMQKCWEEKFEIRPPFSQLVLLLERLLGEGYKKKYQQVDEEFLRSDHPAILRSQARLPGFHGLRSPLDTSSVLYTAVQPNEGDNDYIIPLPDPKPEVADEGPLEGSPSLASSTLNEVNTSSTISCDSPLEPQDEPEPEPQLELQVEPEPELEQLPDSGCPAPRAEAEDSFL

HCK = biological target: T2, HCK (Homo sapiens, UniProt P08631); test: Off-chip Mobility Shift Assay, kinase inhibition; format: biochemical
T2 construct: purchased Carna Biosciences, Inc
T2 sequence (P08631 whole entry): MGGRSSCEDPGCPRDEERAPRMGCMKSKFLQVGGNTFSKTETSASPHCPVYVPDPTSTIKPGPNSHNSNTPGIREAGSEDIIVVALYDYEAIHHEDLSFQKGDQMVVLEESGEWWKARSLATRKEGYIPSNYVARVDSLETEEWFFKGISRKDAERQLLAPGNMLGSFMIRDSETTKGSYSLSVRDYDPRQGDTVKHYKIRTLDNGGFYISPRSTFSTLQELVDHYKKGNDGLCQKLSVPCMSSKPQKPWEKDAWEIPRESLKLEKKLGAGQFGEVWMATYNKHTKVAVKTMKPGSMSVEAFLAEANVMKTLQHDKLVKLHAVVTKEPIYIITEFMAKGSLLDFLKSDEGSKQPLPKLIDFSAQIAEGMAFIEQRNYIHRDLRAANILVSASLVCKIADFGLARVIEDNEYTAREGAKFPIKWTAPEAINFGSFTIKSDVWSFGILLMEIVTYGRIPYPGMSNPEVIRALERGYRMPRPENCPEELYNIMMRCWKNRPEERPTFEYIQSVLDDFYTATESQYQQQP

LYNa = biological target: T3, LYNa (Homo sapiens, UniProt P07948); test: Off-chip Mobility Shift Assay, kinase inhibition; format: biochemical
T3 construct: purchased Carna Biosciences, Inc
T3 sequence (P07948 whole entry): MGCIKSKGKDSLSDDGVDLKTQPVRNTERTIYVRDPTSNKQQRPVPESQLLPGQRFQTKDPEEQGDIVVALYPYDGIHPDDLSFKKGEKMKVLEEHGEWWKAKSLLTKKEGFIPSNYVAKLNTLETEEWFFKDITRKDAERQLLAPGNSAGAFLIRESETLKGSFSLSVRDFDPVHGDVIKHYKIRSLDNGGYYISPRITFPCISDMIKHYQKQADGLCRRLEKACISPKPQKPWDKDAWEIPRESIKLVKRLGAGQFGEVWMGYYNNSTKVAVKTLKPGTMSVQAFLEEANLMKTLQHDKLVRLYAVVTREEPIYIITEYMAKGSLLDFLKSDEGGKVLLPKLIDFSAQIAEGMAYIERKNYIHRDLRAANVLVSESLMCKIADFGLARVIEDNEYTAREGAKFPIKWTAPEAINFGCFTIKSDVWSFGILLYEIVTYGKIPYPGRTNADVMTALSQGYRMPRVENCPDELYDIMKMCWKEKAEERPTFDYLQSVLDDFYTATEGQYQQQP

FGR = biological target: T4, FGR (Homo sapiens, UniProt P09769); test: Off-chip Mobility Shift Assay, kinase inhibition; format: biochemical
T4 construct: purchased Carna Biosciences, Inc
T4 sequence (P09769 whole entry): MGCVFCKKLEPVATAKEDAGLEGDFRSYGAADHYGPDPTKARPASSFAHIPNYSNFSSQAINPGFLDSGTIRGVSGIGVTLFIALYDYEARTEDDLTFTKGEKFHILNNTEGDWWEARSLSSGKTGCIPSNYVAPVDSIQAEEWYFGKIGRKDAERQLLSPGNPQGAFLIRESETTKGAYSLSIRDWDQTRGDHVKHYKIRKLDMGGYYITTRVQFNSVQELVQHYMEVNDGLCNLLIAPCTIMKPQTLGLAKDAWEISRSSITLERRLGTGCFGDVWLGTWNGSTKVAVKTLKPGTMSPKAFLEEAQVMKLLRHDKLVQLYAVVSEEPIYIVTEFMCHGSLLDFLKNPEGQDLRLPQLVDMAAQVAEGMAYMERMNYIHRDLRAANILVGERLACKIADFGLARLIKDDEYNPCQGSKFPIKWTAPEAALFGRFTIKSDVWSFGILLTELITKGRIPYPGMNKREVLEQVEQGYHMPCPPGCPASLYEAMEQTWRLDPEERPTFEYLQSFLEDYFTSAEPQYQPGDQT

ARG = biological target: T5, ARG (Homo sapiens, UniProt P42684); test: Off-chip Mobility Shift Assay, kinase inhibition; format: biochemical
T5 construct: purchased Carna Biosciences, Inc
T5 sequence (P42684 whole entry): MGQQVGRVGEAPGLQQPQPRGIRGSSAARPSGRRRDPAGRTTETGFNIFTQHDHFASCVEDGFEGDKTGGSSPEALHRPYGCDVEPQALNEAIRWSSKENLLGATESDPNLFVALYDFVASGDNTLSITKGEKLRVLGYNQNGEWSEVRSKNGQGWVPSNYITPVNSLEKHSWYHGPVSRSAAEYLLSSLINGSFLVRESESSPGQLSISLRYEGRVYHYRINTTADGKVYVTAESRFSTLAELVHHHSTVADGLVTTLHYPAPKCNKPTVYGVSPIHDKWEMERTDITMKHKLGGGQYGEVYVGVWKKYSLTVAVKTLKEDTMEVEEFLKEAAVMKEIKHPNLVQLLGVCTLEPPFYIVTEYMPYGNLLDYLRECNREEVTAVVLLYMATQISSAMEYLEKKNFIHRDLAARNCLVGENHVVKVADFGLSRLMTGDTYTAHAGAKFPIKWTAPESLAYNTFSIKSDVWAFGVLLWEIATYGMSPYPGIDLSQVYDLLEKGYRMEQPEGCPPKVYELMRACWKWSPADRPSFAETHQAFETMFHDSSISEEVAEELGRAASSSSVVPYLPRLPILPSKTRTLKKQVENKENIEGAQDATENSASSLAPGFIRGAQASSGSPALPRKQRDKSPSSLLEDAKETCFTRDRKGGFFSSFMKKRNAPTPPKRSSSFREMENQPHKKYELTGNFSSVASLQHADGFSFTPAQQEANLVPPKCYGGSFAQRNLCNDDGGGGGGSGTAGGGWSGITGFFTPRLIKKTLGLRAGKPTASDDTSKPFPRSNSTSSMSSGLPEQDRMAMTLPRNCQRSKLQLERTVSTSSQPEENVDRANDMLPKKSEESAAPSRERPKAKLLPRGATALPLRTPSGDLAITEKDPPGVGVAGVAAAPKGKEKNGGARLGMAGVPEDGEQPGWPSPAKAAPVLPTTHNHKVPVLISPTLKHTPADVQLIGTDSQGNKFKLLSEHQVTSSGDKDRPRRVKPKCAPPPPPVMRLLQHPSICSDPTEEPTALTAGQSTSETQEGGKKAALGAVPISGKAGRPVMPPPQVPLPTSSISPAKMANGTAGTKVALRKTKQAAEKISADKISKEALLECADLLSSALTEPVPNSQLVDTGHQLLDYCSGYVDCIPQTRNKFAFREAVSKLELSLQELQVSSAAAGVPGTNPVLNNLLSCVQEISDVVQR

DDR2 = biological target: T6, DDR2 (Homo sapiens, UniProt Q16832); test: Off-chip Mobility Shift Assay, kinase inhibition; format: biochemical
T6 construct: purchased Carna Biosciences, Inc
T6 sequence (Q16832 22-855): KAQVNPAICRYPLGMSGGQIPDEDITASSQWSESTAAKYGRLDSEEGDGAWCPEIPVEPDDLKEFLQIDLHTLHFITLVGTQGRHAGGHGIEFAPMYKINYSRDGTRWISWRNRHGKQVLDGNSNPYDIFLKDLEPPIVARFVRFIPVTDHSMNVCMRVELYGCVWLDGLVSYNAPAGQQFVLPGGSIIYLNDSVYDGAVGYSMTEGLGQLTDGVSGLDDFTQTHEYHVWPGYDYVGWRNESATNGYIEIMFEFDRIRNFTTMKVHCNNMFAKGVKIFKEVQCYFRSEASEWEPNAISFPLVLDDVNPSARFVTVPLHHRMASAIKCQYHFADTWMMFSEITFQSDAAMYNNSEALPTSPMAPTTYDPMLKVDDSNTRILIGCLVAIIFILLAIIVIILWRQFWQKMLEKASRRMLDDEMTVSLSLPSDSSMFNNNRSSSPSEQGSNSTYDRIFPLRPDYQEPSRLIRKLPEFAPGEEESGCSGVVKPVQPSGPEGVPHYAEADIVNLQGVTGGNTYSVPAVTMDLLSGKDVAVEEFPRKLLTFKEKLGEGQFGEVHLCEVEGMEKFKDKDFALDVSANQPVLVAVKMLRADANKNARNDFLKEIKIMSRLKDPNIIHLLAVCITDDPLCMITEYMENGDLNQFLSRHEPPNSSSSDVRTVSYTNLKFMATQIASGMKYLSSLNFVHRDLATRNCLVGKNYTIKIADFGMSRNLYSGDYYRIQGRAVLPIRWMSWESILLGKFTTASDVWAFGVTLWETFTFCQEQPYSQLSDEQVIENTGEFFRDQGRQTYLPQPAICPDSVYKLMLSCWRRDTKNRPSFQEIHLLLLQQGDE

PDGFRα = biological target: T7, PDGFRα (Homo sapiens, UniProt P16234); test: Off-chip Mobility Shift Assay, kinase inhibition; format: biochemical
T7 construct: purchased Carna Biosciences, Inc
T7 sequence (P16234 24-1089): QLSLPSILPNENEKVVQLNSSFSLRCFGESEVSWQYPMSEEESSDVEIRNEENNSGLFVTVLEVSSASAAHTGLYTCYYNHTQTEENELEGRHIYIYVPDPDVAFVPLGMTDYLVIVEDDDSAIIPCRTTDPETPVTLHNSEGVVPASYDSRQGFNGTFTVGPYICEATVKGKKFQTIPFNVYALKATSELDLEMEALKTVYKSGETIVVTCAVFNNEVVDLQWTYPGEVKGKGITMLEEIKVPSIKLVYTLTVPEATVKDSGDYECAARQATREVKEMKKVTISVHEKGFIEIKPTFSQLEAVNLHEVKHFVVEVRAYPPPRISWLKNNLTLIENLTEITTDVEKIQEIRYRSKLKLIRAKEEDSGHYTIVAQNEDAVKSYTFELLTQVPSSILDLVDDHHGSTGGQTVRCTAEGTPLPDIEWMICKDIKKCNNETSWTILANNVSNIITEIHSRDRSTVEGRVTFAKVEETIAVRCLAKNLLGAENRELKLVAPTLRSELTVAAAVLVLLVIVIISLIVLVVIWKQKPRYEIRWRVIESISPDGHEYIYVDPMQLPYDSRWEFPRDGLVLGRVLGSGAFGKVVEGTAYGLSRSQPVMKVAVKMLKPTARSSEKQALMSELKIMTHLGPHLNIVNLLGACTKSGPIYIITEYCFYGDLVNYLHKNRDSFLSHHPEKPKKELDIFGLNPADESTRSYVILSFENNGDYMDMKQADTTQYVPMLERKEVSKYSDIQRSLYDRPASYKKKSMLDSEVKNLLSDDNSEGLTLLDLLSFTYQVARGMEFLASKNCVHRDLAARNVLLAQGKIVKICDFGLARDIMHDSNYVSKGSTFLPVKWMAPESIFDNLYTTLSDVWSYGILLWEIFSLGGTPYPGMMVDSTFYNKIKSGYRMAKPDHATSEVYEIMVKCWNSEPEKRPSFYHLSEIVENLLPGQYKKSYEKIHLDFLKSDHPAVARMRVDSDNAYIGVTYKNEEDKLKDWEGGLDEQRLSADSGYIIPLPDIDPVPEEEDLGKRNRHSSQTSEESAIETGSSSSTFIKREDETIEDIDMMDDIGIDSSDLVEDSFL

[3] = Table 2, co-dosed with compound IV
[4] = Table 3, co-dosed with compound X

Row | IC50 (SU-DHL-4) | F, percent oral bioavailability ([1]; PO 5 mg/kg versus intravenous 1 mg/kg, AUCinf dose normalized, Table 3) | SMILES | IC50 (Mino) | V [1, 3] | V [1, 4] | activity to inhibit kinases [2] | inhibition at 0.01 µM (PDGFRβ) | inhibition at 0.01 µM (HCK) | inhibition at 0.01 µM (LYNa) | inhibition at 0.01 µM (FGR) | inhibition at 0.01 µM (ARG) | inhibition at 0.01 µM (DDR2) | inhibition at 0.01 µM (PDGFRα)
1 | < 20 nM |  | Cc1nc(Nc2ncc(C(=O)Nc3c(C)cccc3Cl)s2)cc(N2CCCC2)n1 [Compound XIV, N-(2-chloro-6-methylphenyl)-2-[[2-methyl-6-(pyrrolidin-1-yl)pyrimidin-4-yl]amino]thiazole-5-carboxamide] | < 50 nM |  |  |  |  |  |  |  |  |  | 
2 |  | 3.9±1% | Cc1nc(Nc2ncc(C(=O)Nc3c(C)cccc3Cl)s2)cc(N2CCN(CCO)CC2)n1 [Dasatinib, reference compound] |  | 3 ± 0 L/kg | 2 ± 0 L/kg |  |  |  |  |  |  |  | 
3 |  |  | [2H]c1cc(C)c(NC(=O)c2cnc(Nc3cc(N4CCN(CCO)CC4)nc(C)n3)s2)c(Cl)c1 [Compound III] |  | 3 ± 0 L/kg | 3 ± 0 L/kg | potent activity | > 50% | > 50% | > 50% | > 50% | > 50% | > 50% | > 50%

From patent US10479786B2, “Protein kinase inhibitors” (Princeton Drug Discovery Inc, priority 2016, dated 2019)
